Test results published in ChEMBL document CHEMBL3885861, “Open TG-GATES”.

Species: Rattus norvegicus
Test: Open TG-GATES - Regimen: Single
Assay type: toxicity, organism-based, Sprague-Dawley
Parameters: regimen Single, gender Male, age 6 weeks
Details: in vivo, po, 100 mg/kg, route gavage, dose level Middle; for APTT / Bas / Eos / Fbg / Hb / Ht / Lym / MCH / MCHC / MCV / Mono / Neu / PT / Plat / RBC / Ret / WBC: tissue Blood; for KIDNEY_L / KIDNEY_R / KIDNEY_TOTAL: tissue Kidney; for LIVER: tissue Liver; for A/G / ALP / ALT / AST / BUN / CRE / Ca / Cl / DBIL / GLC / IP / K / LDH / Na / PL / RALB / TBIL / TC / TG / TP / gamma-GTP: tissue Plasma

`CCOC(=O)C(C)(C)Oc1ccc(Cl)cc1` [CLOFIBRATE] was tested, and the TERMINAL_BW (3 h) was 227.5 g, the APTT (3 h) was 18.9 s and the Bas (3 h) was 0%. For the same molecule, the Eos (3 h) was 1%, the Fbg (3 h) was 231.4 mg/dL and the Hb (3 h) was 13.6 g/dL. The Ht (3 h) was 39%, the Lym (3 h) was 76.6% and the MCH (3 h) was 20.9 pg. The MCHC (3 h) was 34.8%, the MCV (3 h) was 60.1 fL and the Mono (3 h) was 2.6%. The Neu (3 h) was 19.2%, the PT (3 h) was 12.3 s and the Plat (3 h) was 126.5 x10_4/uL. The RBC (3 h) was 649.6 x10_4/ul, the Ret (3 h) was 7.1% and the WBC (3 h) was 87.8 x10_2/uL. It also gave a KIDNEY_L (3 h) of 1 g, a KIDNEY_R (3 h) of 1 g and a KIDNEY_TOTAL (3 h) of 1.9 g. The LIVER (3 h) was 9.9 g, the A/G (3 h) was 1.6 and the ALP (3 h) was 1012.4 IU/L. For the same molecule, the ALT (3 h) was 36.8 IU/L, the AST (3 h) was 68.2 IU/L and the BUN (3 h) was 10 mg/dL. It also gave a CRE (3 h) of 0.3 mg/dL, a Ca (3 h) of 10.7 mg/dL and a Cl (3 h) of 102.6 meq/L. The DBIL (3 h) was 0.2 mg/dL, the GLC (3 h) was 201.6 mg/dL and the IP (3 h) was 9 mg/dL. The K (3 h) was 3.8 meq/L, the LDH (3 h) was 203.6 IU/L and the Na (3 h) was 139.6 meq/L. The PL (3 h) was 157.6 mg/dL, the RALB (3 h) was 3.5 g/dL and the TBIL (3 h) was 0.3 mg/dL. The TC (3 h) was 75.2 mg/dL, the TG (3 h) was 121 mg/dL and the TP (3 h) was 5.7 g/dL. It also gave a gamma-GTP (3 h) of 0.4 IU/L, a TERMINAL_BW (6 h) of 227.2 g and an APTT (6 h) of 18.9 s. It also gave a Bas (6 h) of 0%, an Eos (6 h) of 1% and a Fbg (6 h) of 232.6 mg/dL. The Hb (6 h) was 13.7 g/dL, the Ht (6 h) was 39.5% and the Lym (6 h) was 79.6%. It also gave an MCH (6 h) of 20.8 pg, an MCHC (6 h) of 34.6% and an MCV (6 h) of 60.1 fL. The Mono (6 h) was 3.2%, the Neu (6 h) was 16% and the PT (6 h) was 12.5 s. It also gave a Plat (6 h) of 132.6 x10_4/uL, an RBC (6 h) of 657.6 x10_4/ul and a Ret (6 h) of 7.3%. It also gave a WBC (6 h) of 89.7 x10_2/uL, a KIDNEY_L (6 h) of 1 g and a KIDNEY_R (6 h) of 1 g. It also gave a KIDNEY_TOTAL (6 h) of 2 g, an LIVER (6 h) of 10.1 g and an A/G (6 h) of 1.6. The ALP (6 h) was 987.8 IU/L, the ALT (6 h) was 29.8 IU/L and the AST (6 h) was 62.8 IU/L. The BUN (6 h) was 9.2 mg/dL, the CRE (6 h) was 0.4 mg/dL and the Ca (6 h) was 10.9 mg/dL. It also gave a Cl (6 h) of 102.4 meq/L, a DBIL (6 h) of 0.1 mg/dL and a GLC (6 h) of 196.2 mg/dL. The IP (6 h) was 9.4 mg/dL, the K (6 h) was 4.2 meq/L and the LDH (6 h) was 223.6 IU/L. The Na (6 h) was 139 meq/L, the PL (6 h) was 146.8 mg/dL and the RALB (6 h) was 3.5 g/dL. For the same molecule, the TBIL (6 h) was 0.2 mg/dL, the TC (6 h) was 73.8 mg/dL and the TG (6 h) was 106.4 mg/dL. For the same molecule, the TP (6 h) was 5.7 g/dL, the gamma-GTP (6 h) was 0.6 IU/L and the TERMINAL_BW (9 h) was 222.9 g. It also gave an APTT (9 h) of 17.6 s, a Bas (9 h) of 0% and an Eos (9 h) of 1%. For the same molecule, the Fbg (9 h) was 227.4 mg/dL, the Hb (9 h) was 13.3 g/dL and the Ht (9 h) was 38.2%. The Lym (9 h) was 80.2%, the MCH (9 h) was 21 pg and the MCHC (9 h) was 34.8%. The MCV (9 h) was 60.5 fL, the Mono (9 h) was 1.8% and the Neu (9 h) was 16.6%. For the same molecule, the PT (9 h) was 12.9 s, the Plat (9 h) was 137.6 x10_4/uL and the RBC (9 h) was 630.2 x10_4/ul. For the same molecule, the Ret (9 h) was 7.4%, the WBC (9 h) was 82.1 x10_2/uL and the KIDNEY_L (9 h) was 1 g. The KIDNEY_R (9 h) was 1 g, the KIDNEY_TOTAL (9 h) was 2.1 g and the LIVER (9 h) was 9.6 g. For the same molecule, the A/G (9 h) was 1.6, the ALP (9 h) was 1028.4 IU/L and the ALT (9 h) was 26.6 IU/L. For the same molecule, the AST (9 h) was 59.4 IU/L, the BUN (9 h) was 9.8 mg/dL and the CRE (9 h) was 0.4 mg/dL. For the same molecule, the Ca (9 h) was 10.4 mg/dL, the Cl (9 h) was 101.4 meq/L and the DBIL (9 h) was 0.088 mg/dL. For the same molecule, the GLC (9 h) was 206.4 mg/dL, the IP (9 h) was 10.3 mg/dL and the K (9 h) was 3.5 meq/L. It also gave an LDH (9 h) of 182.4 IU/L, a Na (9 h) of 140.2 meq/L and a PL (9 h) of 120.4 mg/dL. The RALB (9 h) was 3.4 g/dL, the TBIL (9 h) was 0.1 mg/dL and the TC (9 h) was 59.4 mg/dL. The TG (9 h) was 73 mg/dL, the TP (9 h) was 5.6 g/dL and the gamma-GTP (9 h) was 0.6 IU/L. For the same molecule, the TERMINAL_BW (24 h) was 236 g, the APTT (24 h) was 19.1 s and the Bas (24 h) was 0%. It also gave an Eos (24 h) of 1%, a Fbg (24 h) of 223.8 mg/dL and a Hb (24 h) of 13.6 g/dL. It also gave a Ht (24 h) of 38.9%, a Lym (24 h) of 79.8% and an MCH (24 h) of 21.4 pg. It also gave an MCHC (24 h) of 34.9%, an MCV (24 h) of 61.4 fL and a Mono (24 h) of 3.2%. It also gave a Neu (24 h) of 15.4%, a PT (24 h) of 12.6 s and a Plat (24 h) of 131 x10_4/uL. For the same molecule, the RBC (24 h) was 633.6 x10_4/ul, the Ret (24 h) was 7% and the WBC (24 h) was 93.4 x10_2/uL. The KIDNEY_L (24 h) was 1 g, the KIDNEY_R (24 h) was 1 g and the KIDNEY_TOTAL (24 h) was 2 g. The LIVER (24 h) was 12 g, the A/G (24 h) was 1.6 and the ALP (24 h) was 871 IU/L. It also gave an ALT (24 h) of 36 IU/L, an AST (24 h) of 65.6 IU/L and a BUN (24 h) of 14.8 mg/dL. It also gave a CRE (24 h) of 0.4 mg/dL, a Ca (24 h) of 10.9 mg/dL and a Cl (24 h) of 100.8 meq/L. The DBIL (24 h) was 0.088 mg/dL, the GLC (24 h) was 202 mg/dL and the IP (24 h) was 7.5 mg/dL. The K (24 h) was 3.7 meq/L, the LDH (24 h) was 219.2 IU/L and the Na (24 h) was 139.6 meq/L. For the same molecule, the PL (24 h) was 134.2 mg/dL, the RALB (24 h) was 3.4 g/dL and the TBIL (24 h) was 0.1 mg/dL. For the same molecule, the TC (24 h) was 60.4 mg/dL, the TG (24 h) was 106.4 mg/dL and the TP (24 h) was 5.6 g/dL. The gamma-GTP (24 h) was 1 IU/L.
